Series [1] can be described thus: Thermal stability by TGA and DSC. It is filed as physicochemical. The method, then:
Decomposition occurred above 390° C. as determined by thermal gravimetric analysis (TGA, FIG. 4A) and no phase transitions were observed up to 350° C. as determined by differential scanning calorimetry (DSC) (see FIG. 5A). This stability is similar to that of compound 5. TGA of compound 4 is illustrated in FIG. 4B. The TGA were run under N2 at 2° C. per min.
The impact of thermal annealing on the thin-film optical absorption profile is an important factor for use of such dimers. The BOC functionalized derivative 4 was synthesized at least in part to enable facile solution processing of the PDI dimer and generation of 3 in the solid film through thermal deprotection after film formation. FIGS. 5A-5C are DSC plots for compounds 3, 4 and 5, respectively, run under N2 at 10° C. per min. For clarity, the second and third trials of each cooling run and the third trial of each heating run is omitted for all species because the data is indistinguishable from previous runs. During the first heating trial of compound 4, an endothermic peak is clearly present in the plot with an onset occurring at 160° C. This was assumed to be the temperature where cleavage of the protecting group begins to occur and this is confirmed by the fact that this feature is not present in the second heating trial, which has a profile strongly resembling that of the heated NH Dimer 3 and further confirmed by bulk deprotection of compound 4 in an oven at 180° C. The first heating trial of compound 3 features a smooth, downward sloping line. […] This feature is due to a cold-crystallization and has previously been observed in similar molecules.
Thus, films were thermally annealed above this temperature (e.g., at 200° C.) to ensure the BOC protecting group was removed. Films of all three compounds 3-5 were studied.

The nature of series [2]: Cyclic voltammetry in dichloromethane solution. The series is classed as physicochemical. The method, then:
The electron affinity, 3.8 eV, and ionization potential, 5.8 eV, were determined from the onset of reduction (ca. −1.0V) and oxidation (ca. 1.0V), respectively, using a conversion value of 4.8. These values are similar to those of previously reported PDI dimers and indicate that compound 3 is suitable for use as an electron acceptor and transporting material in organic electronic devices. An analogous normalized CV plot of compound 4 is provided in FIG. 2B, where no oxidation is observed due to the electron withdrawing nature of the BOC group.
Cyclic Voltammetry (CV): All electrochemical measurements were performed using a CH Instruments potentiostat in a standard three-electrode configuration equipped with a silver wire pseudo-reference, platinum wire counter electrode and glassy carbon working electrode. The cyclic voltammetry experiments were performed in an anhydrous solution of dichloromethane (CH2Cl2) with ˜0.1 M tetrabutylammonium-hexafluorophosphate (TBAPF6) supporting electrolyte. Samples were scanned at a rate of 100 mV/s following a dry N2 purge to deoxygenate the solution, unless otherwise noted. Solution CV measurements were carried out with a sample concentration of ˜0.5 mg/mL in CH2Cl2, unless otherwise noted. Estimations of the energy levels were obtained by correlating the onset (Eox Fc/Fc+, Ered Fc/Fc+) to the normal hydrogen electrode (NHE), assuming a HOMO energy level of 4.80 eV for Fc/Fc+: E(HOMO)=−(Eox+4.80), E(LUMO)=−(Ered+4.80) UV-Visible Spectroscopy (UV/vis): All absorption measurements were recorded using an Agilent Technologies Cary 60 UV-vis spectrometer at room temperature. All solution UV/vis experiments were run in chloroform (CHCl3) using 2 mm quartz cuvettes and diluted 1% wt/v solutions, unless otherwise noted. Thin-films were prepared by spin-coating 1% wt/v solutions from CHCl3 onto Corning glass micro slides, unless otherwise noted. Prior to use, glass slides were cleaned with soap and water, acetone and isopropanol, and followed by UV/ozone treatment using a Novascan UV/ozone cleaning system.

The nature of a further series: physchem. The note with it: organic solvent or mixture.
The nature of series [3]: Solubility in organic solvents. The note with it: organic solvent or mixture.

Each structure is given as a SMILES string. Converted amounts (≈) assume the structure as drawn. Some results are limits rather than exact numbers.

For `CCC(CC)n1c(=O)c2ccc3c4c(-c5cc6c(=O)n(C(CC)CC)c(=O)c7cc8c9c(c5c5ccc%10c(=O)n(C(CC)CC)c(=O)c%11cc(c9c5c%10%11)n8C(=O)OC(C)(C)C)c67)cc5c(=O)n(C(CC)CC)c(=O)c6cc7c(c4c56)c4c3c2c(cc4n7C(=O)OC(C)(C)C)c1=O` [Compound 4, tPDI2N—BOC], the “onset of endothermic peak (cleavage of the protecting group begins)” value in series [1] (DSC first heating trial, under N2 at 10° C. per min) is 160 °C. Further, the “loss of the BOC group” value in series [1] (TGA and DSC) is about 170 °C.
What is called solubility is the concentration that dissolves in the medium under given conditions. As for `CCC(CC)n1c(=O)c2ccc3c4c(-c5cc6c(=O)n(C(CC)CC)c(=O)c7cc8[nH]c9cc%10c(=O)n(C(CC)CC)c(=O)c%11ccc%12c5c(c67)c8c9c%12c%11%10)cc5c(=O)n(C(CC)CC)c(=O)c6cc7[nH]c8cc(c1=O)c2c3c8c7c4c56` [Compound 3, tPDI2N—H], in series [1] (TGA under N2 at 2° C. per min), the decomposition temperature entry is “above 390 °C”. Moreover, the “oxidation waves E1/2” value in series [2] (dichloromethane solution, hexafluorophosphate electrolyte) is 1.1 V vs. Fc/Fc+. This molecule also displayed an ionization potential in series [2] (from onset of oxidation (ca. 1.0V), conversion value of 4.8) of 5.8 eV. This molecule also gave an electron affinity in series [2] (from onset of reduction (ca. -1.0V), conversion value of 4.8) of 3.8 eV. Moreover, the solubility in the series “physchem” is about 5000 µg/mL (≈ 4.61 mM).
On to `CCCCCCn1c2cc3c(=O)n(C(CC)CC)c(=O)c4ccc5c6c(-c7cc8c(=O)n(C(CC)CC)c(=O)c9cc%10c%11c(c7c7ccc%12c(=O)n(C(CC)CC)c(=O)c%13cc(c%11c7c%12%13)n%10CCCCCC)c89)cc7c(=O)n(C(CC)CC)c(=O)c8cc1c(c6c78)c2c5c43` [Compound 5, tPDI2N-Hex], for which, in series [3], the solubility is over 50000 µg/mL.

These data come from patent US10647732B2, “N-annulated perylene diimide dimers with active pyrrolic N—H bonds” (UTI Limited Partnership, priority 2018, dated 2020).
